Assay results from patent publication US20060069132A1, “Azolecarboxamide herbicides” (priority 2004, published 2006).

What was measured:
giant foxtail [1] = assay: Test A pre-/postemergence herbicide test; type: in vivo, Setaria faberi
In short: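 Visual injury rating on a 0–100 scale (0 no effect, 100 complete control) versus untreated controls, about ten days after treatment in greenhouse. Pre: directed soil spray onto seeded sandy loam. Post: spray to runoff on plants 2–10 cm tall at one- to two-leaf stage.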

giant foxtail [2] = assay: Test B pre-/postemergence herbicide test; type: in vivo, Setaria faberi
In short: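 Evaluation is visual, comparing treated with control plants on a scale where 0 means no effect and 100 means full control. Treatments were preemergence, or postemergence on seedlings 2–18 cm tall, and held 13–15 days in the greenhouse.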

cocklebur = assay: Test C pre-/postemergence herbicide test; type: in vivo, Xanthium strumarium; settings: for Cocklebur plant response rating: 500 g ai/ha
In short: (§1)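 Pre- and postemergence application, solvent/surfactant formulation; post at 1- to 4-leaf stage (2–18 cm). Greenhouse 12–14 d. Visual rating vs controls, 0 = no effect, 100 = complete control.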

corn = assay: Test C pre-/postemergence herbicide test; type: in vivo, Zea mays; settings: for Corn plant response rating: 500 g ai/ha
In short: as §1

kochia = assay: Test C pre-/postemergence herbicide test; type: in vivo, Kochia scoparia; settings: for Kochia plant response rating: 500 g ai/ha
In short: as §1

yellow nutsedge = assay: Test C pre-/postemergence herbicide test; type: in vivo, Cyperus esculentus; settings: for Nutsedge, Yellow plant response rating: 500 g ai/ha
In short: as §1

pigweed = assay: Test C pre-/postemergence herbicide test; type: in vivo, Amaranthus retroflexus; settings: for Pigweed plant response rating: 500 g ai/ha
In short: as §1

ducksalad = assay: Test C flooded paddy test; type: in vivo, Heteranthera limosa
barnyardgrass = assay: Test C flooded paddy test; type: in vivo, Echinochloa crus-galli
In short: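 Visual rating, 0 (no effect) to 100 (complete control), vs. controls at 12–14 d in greenhouse. Postemergence: 1–4-leaf plants, 2–18 cm. Paddy: flooded, barnyardgrass at 2-leaf stage.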

[3] = 125 g ai/ha, scale 0 (no effect) to 100 (complete control), visual, 12 to 14 days, preemergence
[4] = 250 g ai/ha, scale 0 to 100 (0 no effect, 100 complete control), visual, 12 to 14 days, preemergence
[5] = Postemergence, 250 g ai/ha, scale 0 to 100, 0 no effect, 100 complete control
[6] = Preemergence, scale 0 to 100, 0 no effect, 100 complete control
[7] = postemergence, 125 g ai/ha, scale 0 to 100
[8] = postemergence, 62 g ai/ha, scale 0 to 100
[9] = 62 g ai/ha, scale 0 to 100 (0 no effect, 100 complete control)
[10] = 125 g ai/ha, scale of 0 to 100, 0 is no effect, 100 is complete control
[11] = 250 g ai/ha, scale of 0 to 100, 0 is no effect, 100 is complete control
[12] = 500 g ai/ha, visual rating after 12 to 14 days, scale 0 to 100 (0 no effect, 100 complete control)

## CC(=NO)c1cccc(NC(=O)c2cc(C(C)(C)C)nn2CCF)c1 [Compound 115]
Giant foxtail [1]; Postemergence, 500 g ai/ha, 0 to 100 scale, 0 no effect, 100 complete control
  Foxtail, Giant plant response rating: 60
Giant foxtail [1]; Postemergence, 2000 g ai/ha, 0 to 100 scale, 0 no effect, 100 complete control
  Plant response rating, Foxtail, Giant: 80
Giant foxtail [1]; Preemergence, 500 g ai/ha, visual rating, 0 to 100 scale (0 no effect, 100 complete control)
  Foxtail, Giant plant response rating: 50
Giant foxtail [1]; Preemergence, 2000 g ai/ha, visual rating, 0 to 100 scale (0 no effect, 100 complete control)
  Foxtail, Giant plant response rating: 80
Giant foxtail [2]; 500 g ai/ha, visual rating 0-100, 0 no effect, 100 complete control, preemergence
  Plant response rating, Foxtail, Giant: 100
Giant foxtail [2]; Postemergence, 500 g ai/ha, visual rating after 13 to 15 days, scale 0 (no effect) to 100 (complete control)
  Plant response rating, Foxtail, Giant: 30
Giant foxtail [2]; postemergence, 125 g ai/ha, visual rating, scale 0 (no effect) to 100 (complete control)
  Foxtail, Giant plant response rating: 20
Giant foxtail [2]; preemergence, 125 g ai/ha, 0 to 100 scale, 0 is no effect, 100 is complete control
  Plant response rating, Foxtail, Giant: 80
cocklebur; 62 g ai/ha, preemergence
  Plant response rating (0 = no effect, 100 = complete control), Cocklebur: 20
cocklebur; [3]
  Plant response rating, Cocklebur: 40
cocklebur; [4]
  Plant response rating, Cocklebur: 50
cocklebur; Postemergence, scale 0 to 100
  Cocklebur plant response rating: 100
cocklebur; [5]
  Plant response rating, Cocklebur: 100
cocklebur; [6]
  Cocklebur plant response rating: 100
cocklebur; [7]
  Plant response rating, Cocklebur: 90
cocklebur; [8]
  Plant response rating, Cocklebur: 90
corn; 62 g ai/ha, preemergence
  Plant response rating (0 = no effect, 100 = complete control), Corn: 10
corn; [3]
  Plant response rating, Corn: 10
corn; [4]
  Plant response rating, Corn: 20
corn; Postemergence, scale 0 to 100
  Corn plant response rating: 40
corn; [6]
  Corn plant response rating: 30
corn; [7]
  Plant response rating, Corn: 40
corn; [8]
  Plant response rating, Corn: 40
kochia; 62 g ai/ha, preemergence
  Plant response rating (0 = no effect, 100 = complete control), Kochia: 100
kochia; [3]
  Plant response rating, Kochia: 100
kochia; Postemergence, scale 0 to 100
  Kochia plant response rating: 90
kochia; [5]
  Plant response rating, Kochia: 90
kochia; [6]
  Kochia plant response rating: 100
kochia; [7]
  Plant response rating, Kochia: 90
kochia; [8]
  Plant response rating, Kochia: 80
Yellow nutsedge; 62 g ai/ha, preemergence
  Plant response rating (0 = no effect, 100 = complete control), Nutsedge, Yellow: 0
Yellow nutsedge; [3]
  Plant response rating, Nutsedge, Yellow: 0
Yellow nutsedge; Postemergence, scale 0 to 100
  Nutsedge, Yellow plant response rating: 30
Yellow nutsedge; [5]
  Plant response rating, Nutsedge, Yellow: 30
Yellow nutsedge; [6]
  Nutsedge, Yellow plant response rating: 20
Yellow nutsedge; [7]
  Plant response rating, Nutsedge, Yellow: 10
Yellow nutsedge; [8]
  Plant response rating, Nutsedge, Yellow: 0
pigweed; 62 g ai/ha, preemergence
  Plant response rating (0 = no effect, 100 = complete control), Pigweed: 100
pigweed; [3]
  Plant response rating, Pigweed: 100
pigweed; Postemergence, scale 0 to 100
  Pigweed plant response rating: 100
pigweed; [5]
  Plant response rating, Pigweed: 100
pigweed; [6]
  Pigweed plant response rating: 100
pigweed; [7]
  Plant response rating, Pigweed: 100
pigweed; [8]
  Plant response rating, Pigweed: 100
ducksalad; [9]
  Ducksalad plant response rating: 30
ducksalad; [10]
  Ducksalad plant response rating: 75
ducksalad; [11]
  Ducksalad plant response rating: 85
ducksalad; [12]
  Plant response rating, Ducksalad: 90
barnyardgrass; [9]
  Barnyardgrass plant response rating: 30
barnyardgrass; [10]
  Barnyardgrass plant response rating: 45
barnyardgrass; [11]
  Barnyardgrass plant response rating: 65
barnyardgrass; [12]
  Plant response rating, Barnyardgrass: 75
